Measurements published in patent US5010064A, “Inclusion complexes of dipyridamole with cyclodextrins” (Edmond Pharma s.r.l., priority 1987, dated 1991).

Columns and labels:
[1] = cited from earlier work
[2] = pH higher than 5.5-6; cited from earlier work
[3] = in vivo; conditions: dog, plasma, po, 75 mg
Procedure: (§1) Studies have been carried out on Beagle dogs (male and female; body weight 10-11 kg) following an experimental scheme in "cross over".
(§2) The blood has been collected in the presence of eparine (10 U.I./ml) and the plasma, separated by centrifugation, has been immediately frozen and stored at -20° C. until extraction. After about 10-20 days of storage, 0.2 ml of plasma has been drawn from each sample and mixed for 15 seconds with 0.5 ml of NaOH 1N. Thereafter, 4 ml of terbutylmethylether have been added and the whole has been stirred for 1 minute. In order to separate the aqueous phase from the organic phase the whole has been centrifuged for 5 minutes. The organic phase has been then removed and dried to dryness under nitrogen stream. […] An excitation wave length of 285 nm has been chosen in connection with an emission filter of 470 nm.

[4] = dog, oral, 75 mg active ingredient; 0 min
Procedure: as §1, §2

[5] = test system: platelet aggregation (ADP-induced) in platelet rich plasma of rabbits; test: platelet aggregation inhibiting activity ex vivo; assay type: in vivo, New Zealand rabbit
Procedure: The platelet rich plasma (PRP) has been separated by centrifugation for 10 minutes and has been suitable diluted to have always 250,000-300,000 platelet/mm^3 with plasma free of platelets (obtained from blood samples by further centrifugation for 10 minutes at 3200 rpm.
The platelet aggregation has been measured by the turbidimetric method under continuous stirring at 37° C., after having added ADP (Adenosine diphosphate to PRP (1.5 μg/ml).

SMILES: OCCN(CCO)c1nc(N2CCCCC2)c2nc(N(CCO)CCO)nc(N3CCCCC3)c2n1 [dipyridamole, 2,2',2",2"'-(4,8-dipiperidinopyrimido/5,4,d/-pyrimidine-2,6-diyldinitrilo)tetraethanol]
- blood level at which not pharmacologically active ([1]; in vivo): 0.5-1 γ/ml
- blood level with undesired side effects (cephalea and nausea) ([1]; in vivo): 2000 to 2500 ng/mL
- adsorption ([1]; in words): not well adsorbed
- variability of blood levels between and within subjects ([1]; in words): blood levels different from one to another subject and for repeated administrations in the same subject
- blood level needed to be active as platelet aggregation inhibiting agent ([1]; man): higher than 1 mcg/ml
- upper blood level (might show side effects such as cephalea and nausea) ([1]; man): 2.0 to 2.5 µg/mL
- solubility in water [2]: poor soluble in water
- concentration at 10 min [3]: 8 ng/mL
- concentration at 20 min [3]: 24 ng/mL
- concentration at 0.5 h [3]: 784 ng/mL
- concentration at 0.75 h [3]: 1620 ng/mL
- concentration at 1 h [3]: 2840 ng/mL
- concentration at 1.5 h [3]: 3960 ng/mL
- concentration at 2 h [3]: 4710 ng/mL
- concentration at 2.5 h [3]: 4730 ng/mL
- concentration at 3 h [3]: 2930 ng/mL
- concentration at 4 h [3]: 1970 ng/mL
- concentration at 5 h [3]: 1290 ng/mL
- concentration at 6 h [3]: 628 ng/mL
- concentration at 7 h [3]: 360 ng/mL
- average plasma concentration of dipyridamole [4]: 0
- % platelet aggregation ([5]; 10 mg/kg os, 0 hr): 83 ± 3.0%
- % platelet aggregation ([5]; 10 mg/kg os, 0.5 hr): 63 ± 3.7%
- % platelet aggregation ([5]; 10 mg/kg os, 1 hr): 44 ± 3.2%
- % platelet aggregation ([5]; 10 mg/kg os, 2 hr): 40 ± 2.9%
- % platelet aggregation ([5]; 10 mg/kg os, 4 hr): 49 ± 2.7%
- % platelet aggregation ([5]; 20 mg/kg os, 0 hr): 87 ± 3.2%
- % platelet aggregation ([5]; 20 mg/kg os, 0.5 hr): 58 ± 5.9%
- % platelet aggregation ([5]; 20 mg/kg os, 1 hr): 29 ± 4.1%
- % platelet aggregation ([5]; 20 mg/kg os, 2 hr): 27 ± 3.8%
- % platelet aggregation ([5]; 20 mg/kg os, 4 hr): 38 ± 3.9%
